Reference: paper PMC8187626, “Clostridioides difficile specific DNA adenine methyltransferase CamA squeezes and flips adenine out of DNA helix” (Nature Communications, 2021)

What was measured:
CamA [1] = molecular target: T1, CamA (Clostridioides difficile, UniProt Q183J3); experiment: isothermal titration calorimetry, one-site fit; assay type: binding
T1 construct: gene CD630_27580; full length, 577 residues; N-terminal His-SUMO tag cut by ULP protease leaving His-Met; E. coli Rosetta, plasmid pXC2184; active as monomer

CamA [2] = molecular target: T1, CamA; experiment: MTase-Glo luminescence assay of SAH formation; assay type: biochemical; conditions: 20 µM dsDNA substrate (CAAAAA site), 50 nM CamA, 100 mM NaCl, 20 mM Tris-HCl pH 7.5, ~22 °C, 2.5 min
CamA SeMet = molecular target: T2, CamA SeMet (Clostridioides difficile 630, UniProt Q183J3 1-577); experiment: X-ray crystallography; no cofactor; ITC at 25 C: 200 uM DNA into 18-20 uM CamA, 20 mM HEPES pH 8.0, 0.5 mM TCEP, 5% glycerol, 150 or 250 mM NaCl (cofactor comparison at 250 mM NaCl); conditions: protein: recombinant; tags: His-SUMO cleaved, leaves N-terminal His-Met; 5' overhang 1 nt at each end (T / A)
T2 sequence: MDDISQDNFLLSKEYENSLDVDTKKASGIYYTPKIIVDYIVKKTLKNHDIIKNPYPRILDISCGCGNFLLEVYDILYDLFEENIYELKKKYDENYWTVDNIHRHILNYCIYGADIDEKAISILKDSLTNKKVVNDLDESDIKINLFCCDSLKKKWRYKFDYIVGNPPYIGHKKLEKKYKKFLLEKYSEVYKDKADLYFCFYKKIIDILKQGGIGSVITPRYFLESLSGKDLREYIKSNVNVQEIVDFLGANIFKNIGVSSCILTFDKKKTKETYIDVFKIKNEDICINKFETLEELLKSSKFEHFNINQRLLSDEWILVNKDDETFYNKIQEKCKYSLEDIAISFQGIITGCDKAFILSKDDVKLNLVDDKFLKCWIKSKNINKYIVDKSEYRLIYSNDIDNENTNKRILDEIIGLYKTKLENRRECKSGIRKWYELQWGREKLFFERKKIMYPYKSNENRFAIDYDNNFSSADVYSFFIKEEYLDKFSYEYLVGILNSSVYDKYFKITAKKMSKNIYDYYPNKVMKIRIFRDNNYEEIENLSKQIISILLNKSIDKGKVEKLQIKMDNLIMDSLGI

CamA [3] = molecular target: T3, CamA (Clostridioides difficile 630, UniProt Q183J3 1-577); experiment: X-ray crystallography; no cofactor bound (SAH dissociated); 2.68 A; ITC at 25 C: 200 uM DNA into 18-20 uM CamA, 20 mM HEPES pH 8.0, 0.5 mM TCEP, 5% glycerol, 150 or 250 mM NaCl (cofactor comparison at 250 mM NaCl); conditions: protein: recombinant; tags: His-SUMO cleaved, leaves N-terminal His-Met; 5' overhang 1 nt at each end (T / A)
T3 sequence: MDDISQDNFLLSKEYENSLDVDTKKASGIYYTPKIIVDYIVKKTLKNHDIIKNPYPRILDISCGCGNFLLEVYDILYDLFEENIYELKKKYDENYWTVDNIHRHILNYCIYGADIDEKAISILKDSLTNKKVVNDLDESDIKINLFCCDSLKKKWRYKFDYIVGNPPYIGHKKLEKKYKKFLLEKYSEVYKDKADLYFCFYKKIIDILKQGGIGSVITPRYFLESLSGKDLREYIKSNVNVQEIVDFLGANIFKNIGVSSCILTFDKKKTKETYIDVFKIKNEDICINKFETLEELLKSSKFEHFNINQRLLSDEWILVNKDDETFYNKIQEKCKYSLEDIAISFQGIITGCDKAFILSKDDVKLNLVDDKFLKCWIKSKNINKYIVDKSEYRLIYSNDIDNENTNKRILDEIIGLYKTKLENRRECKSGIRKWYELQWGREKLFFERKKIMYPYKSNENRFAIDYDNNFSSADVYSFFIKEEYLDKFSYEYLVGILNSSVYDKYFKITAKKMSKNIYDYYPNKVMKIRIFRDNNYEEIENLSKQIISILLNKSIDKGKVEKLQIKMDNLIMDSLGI

Nc1ncnc2c1ncn2[C@@H]1O[C@H](CSCC[C@H](N)C(=O)O)[C@@H](O)[C@H]1O [SAH]
Kd (CamA [1]): 8 µM

C[S+](CC[C@H](N)C(=O)O)C[C@H]1O[C@@H](n2cnc3c(N)ncnc32)[C@H](O)[C@@H]1O (stereo partly drawn) [SAM]
Km (CamA [2]): > 17 µM
Kd (CamA [1]): 23 to 35 µM

Nc1ncnc2c1ncn2[C@@H]1O[C@H](C[C@@H](N)CC[C@H](N)C(=O)O)[C@@H](O)[C@H]1O [sinefungin]
Kd (CamA [1]): 19 µM

B1: co-crystal DNA 13 bp + overhangs (dsDNA)
DNA 1: TTCAAAAAGTCCCA
DNA 2: ATGGGACTTTTTGA
binding result (CamA SeMet): binds
binding result (CamA [3]): binds
